pIC50: −log10 of the molar value. Where two headings read alike, the source gives them in different places.
Experiments:
CDK1-CYCLIN B = CDK1-CYCLIN B (Homo sapiens, UniProt P06493); assay: CDK protein kinase inhibition by ADP-Glo assay, CDK1-CYCLIN B; assay type: biochemical; settings: for pIC50: read-out: CDK1-CYCLINB, IC50; for CDK2 Fold selectivity, CDK1: CDK2 versus CDK1; for CDK2 Fold selectivity against CDK1: fold selectivity for CDK2 over CDK1, recombinant CDK kinases
Procedure, shortened: (§1)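 Luminescent ADP-Glo read-out of ADP generated as kinase/cyclin complexes turn over peptide substrate. Reactions ran at 22° C with 1000 μM ATP, 5 mM Mg2+, pH 7.5 HEPES buffer, 1% DMSO.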

CDK2-CYCLIN E1 = CDK2-CYCLIN E1 (Homo sapiens, UniProt P24941); assay: CDK protein kinase inhibition by ADP-Glo assay, CDK2-CYCLIN E1; assay type: biochemical; settings: read-out: CDK2-CYCLINE, IC50
Procedure, shortened: as §1

CDK4-CYCLIN D1 = CDK4-CYCLIN D1 (Homo sapiens, UniProt P11802); assay: CDK protein kinase inhibition by ADP-Glo assay, CDK4-CYCLIN D1; assay type: biochemical; settings: for pIC50: read-out: CDK4-CYCLIND1, IC50; for CDK2 Fold selectivity, CDK4: CDK2 versus CDK4; for CDK2 Fold selectivity against CDK4: fold selectivity for CDK2 over CDK4, recombinant CDK kinases
Sequence of CDK4-CYCLIN D1 (P11802 whole entry): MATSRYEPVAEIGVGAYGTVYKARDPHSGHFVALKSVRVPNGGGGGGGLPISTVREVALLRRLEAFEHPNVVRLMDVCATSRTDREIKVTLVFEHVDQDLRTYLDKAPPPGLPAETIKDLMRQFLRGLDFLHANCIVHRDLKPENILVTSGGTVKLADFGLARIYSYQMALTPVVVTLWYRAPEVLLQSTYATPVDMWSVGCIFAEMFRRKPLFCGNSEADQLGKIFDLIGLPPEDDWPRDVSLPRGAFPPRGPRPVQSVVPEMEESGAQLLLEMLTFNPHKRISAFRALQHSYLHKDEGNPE
Sequence of CDK4-CYCLIN D1 (P24385 whole entry partner): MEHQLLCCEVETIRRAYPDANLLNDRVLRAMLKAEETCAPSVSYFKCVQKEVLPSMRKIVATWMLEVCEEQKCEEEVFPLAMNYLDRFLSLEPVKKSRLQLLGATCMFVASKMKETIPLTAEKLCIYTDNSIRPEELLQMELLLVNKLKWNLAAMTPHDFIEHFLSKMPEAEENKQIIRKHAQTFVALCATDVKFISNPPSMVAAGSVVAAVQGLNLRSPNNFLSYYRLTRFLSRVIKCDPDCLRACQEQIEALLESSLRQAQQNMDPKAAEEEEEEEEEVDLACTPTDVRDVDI
Procedure, shortened: as §1

CDK6-CYCLIN D3 = CDK6-CYCLIN D3 (Homo sapiens, UniProt Q00534); assay: CDK protein kinase inhibition by ADP-Glo assay, CDK6-CYCLIN D3; assay type: biochemical; settings: for pIC50: read-out: CDK6-CYCLIND3, IC50; for CDK2 Fold selectivity, CDK6: CDK2 versus CDK6; for CDK2 Fold selectivity against CDK6: fold selectivity for CDK2 over CDK6, recombinant CDK kinases
Sequence of CDK6-CYCLIN D3 (Q00534 whole entry): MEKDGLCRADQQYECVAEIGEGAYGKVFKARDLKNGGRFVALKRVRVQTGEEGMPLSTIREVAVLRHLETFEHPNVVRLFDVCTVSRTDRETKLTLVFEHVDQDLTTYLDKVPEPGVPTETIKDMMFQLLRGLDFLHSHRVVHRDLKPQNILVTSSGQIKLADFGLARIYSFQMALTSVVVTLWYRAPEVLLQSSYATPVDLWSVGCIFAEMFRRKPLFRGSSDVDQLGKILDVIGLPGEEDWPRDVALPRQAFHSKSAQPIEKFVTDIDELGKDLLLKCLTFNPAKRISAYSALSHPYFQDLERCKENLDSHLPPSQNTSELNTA
Sequence of CDK6-CYCLIN D3 (P30281 whole entry partner): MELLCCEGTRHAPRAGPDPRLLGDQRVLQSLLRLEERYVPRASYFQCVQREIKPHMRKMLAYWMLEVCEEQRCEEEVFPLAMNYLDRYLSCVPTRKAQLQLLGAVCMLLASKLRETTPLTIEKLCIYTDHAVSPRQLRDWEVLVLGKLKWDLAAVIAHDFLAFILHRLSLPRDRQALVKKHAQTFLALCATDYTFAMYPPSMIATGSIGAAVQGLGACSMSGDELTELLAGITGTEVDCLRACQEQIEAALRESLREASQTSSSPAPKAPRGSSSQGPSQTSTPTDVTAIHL
Procedure, shortened: as §1

CDK9-CYCLIN T1 = CDK9-CYCLIN T1 (Homo sapiens, UniProt P50750); assay: CDK protein kinase inhibition by ADP-Glo assay, CDK9-CYCLIN T1; assay type: biochemical; settings: for CDK2 Fold selectivity, CDK9: CDK2 versus CDK9; for CDK2 Fold selectivity against CDK9: fold selectivity for CDK2 over CDK9, recombinant CDK kinases
Sequence of CDK9-CYCLIN T1 (P50750 whole entry): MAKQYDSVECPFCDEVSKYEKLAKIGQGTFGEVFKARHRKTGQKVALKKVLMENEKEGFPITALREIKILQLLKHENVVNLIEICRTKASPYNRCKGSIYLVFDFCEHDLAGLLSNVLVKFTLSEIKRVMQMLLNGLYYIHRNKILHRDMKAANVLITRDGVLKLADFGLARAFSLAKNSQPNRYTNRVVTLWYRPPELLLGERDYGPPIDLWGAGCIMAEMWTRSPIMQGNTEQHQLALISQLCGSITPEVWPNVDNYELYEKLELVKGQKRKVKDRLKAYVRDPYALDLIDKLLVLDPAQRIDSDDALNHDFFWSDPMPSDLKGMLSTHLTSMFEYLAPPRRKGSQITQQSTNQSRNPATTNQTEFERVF
Sequence of CDK9-CYCLIN T1 (O60563 whole entry partner): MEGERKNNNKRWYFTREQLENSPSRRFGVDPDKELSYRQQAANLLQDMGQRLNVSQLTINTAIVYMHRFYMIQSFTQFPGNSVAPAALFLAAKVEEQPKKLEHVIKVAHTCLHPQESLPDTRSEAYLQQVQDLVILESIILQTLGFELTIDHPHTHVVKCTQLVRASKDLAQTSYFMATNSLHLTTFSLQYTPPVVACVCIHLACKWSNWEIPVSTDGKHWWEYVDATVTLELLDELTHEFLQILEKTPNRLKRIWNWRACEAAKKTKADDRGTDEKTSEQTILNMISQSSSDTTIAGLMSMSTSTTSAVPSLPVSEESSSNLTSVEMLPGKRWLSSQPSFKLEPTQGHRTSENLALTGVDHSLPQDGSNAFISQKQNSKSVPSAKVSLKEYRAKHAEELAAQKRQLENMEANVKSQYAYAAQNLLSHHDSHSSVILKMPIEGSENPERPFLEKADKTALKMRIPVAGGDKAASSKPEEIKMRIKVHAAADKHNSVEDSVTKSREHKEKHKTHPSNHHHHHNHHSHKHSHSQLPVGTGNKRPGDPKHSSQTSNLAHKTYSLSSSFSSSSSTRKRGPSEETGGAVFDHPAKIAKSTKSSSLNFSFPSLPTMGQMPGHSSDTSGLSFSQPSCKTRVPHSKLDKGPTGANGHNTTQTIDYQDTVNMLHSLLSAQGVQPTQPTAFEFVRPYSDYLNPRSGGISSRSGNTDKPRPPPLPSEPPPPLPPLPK
Procedure, shortened: as §1

[1] = test system: Phospho-Rb (Ser807/811) in OVCAR3 cells; assay: Phospho-Rb expression inhibition in OVCAR3 cells quantified by In Cell Western; assay type: cell-based; settings: Homo sapiens, OVCAR-3, 24 hours, read-out: OVCAR-3 pRb IC50
Procedure, shortened: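 In-cell western: after 24 h compound exposure at 37° C, fixed OVCAR3 cells co-stained for pRb Ser807/811 (800 nm channel) and total Rb (680 nm channel), imaged by LI-COR Odyssey.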

[2] = test system: CCNE1-amplified OVCAR3 cells; assay: Cell growth inhibition of CCNE1-amplified OVCAR3 cells (CellTiter-Glo); assay type: cell-based; settings: Homo sapiens, OVCAR-3, 144 h, 6 days
Procedure, shortened: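 Growth read-out was CellTiter-Glo luminescence, taken after 10 min at room temperature at the end of a 6-day compound exposure at 37 °C. Compounds were diluted from DMSO stocks across various concentrations.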

CCNE1-normal SKOV3 cells = assay: Cell growth inhibition of CCNE1-normal SKOV3 cells (CellTiter-Glo); assay type: cell-based; settings: Homo sapiens, SK-OV-3, 144 h, 6 days
Procedure, shortened: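 Growth was measured by CellTiter-Glo luminescence after 6 days' compound exposure at 37 °C. Cells were plated one day before dosing at 1000 per well in medium with 10% FBS, and compounds were diluted from DMSO stocks.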

[3] = ADP-Glo, 1000 μM ATP, Table 25, read-out: CDK9-CYCLINT1, IC50
[4] = Table 35, recombinant CDK kinase

Sequence of CDK1-CYCLIN B (P06493 whole entry): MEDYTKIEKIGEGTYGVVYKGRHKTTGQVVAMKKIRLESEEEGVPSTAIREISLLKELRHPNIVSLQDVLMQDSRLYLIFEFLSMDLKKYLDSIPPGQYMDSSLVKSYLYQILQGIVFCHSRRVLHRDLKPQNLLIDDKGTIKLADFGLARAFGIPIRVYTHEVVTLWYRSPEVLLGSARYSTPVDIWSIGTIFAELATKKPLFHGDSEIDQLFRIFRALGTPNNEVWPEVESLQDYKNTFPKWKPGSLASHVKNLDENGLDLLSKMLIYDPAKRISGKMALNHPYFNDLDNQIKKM
Sequence of CDK1-CYCLIN B (P14635 whole entry partner): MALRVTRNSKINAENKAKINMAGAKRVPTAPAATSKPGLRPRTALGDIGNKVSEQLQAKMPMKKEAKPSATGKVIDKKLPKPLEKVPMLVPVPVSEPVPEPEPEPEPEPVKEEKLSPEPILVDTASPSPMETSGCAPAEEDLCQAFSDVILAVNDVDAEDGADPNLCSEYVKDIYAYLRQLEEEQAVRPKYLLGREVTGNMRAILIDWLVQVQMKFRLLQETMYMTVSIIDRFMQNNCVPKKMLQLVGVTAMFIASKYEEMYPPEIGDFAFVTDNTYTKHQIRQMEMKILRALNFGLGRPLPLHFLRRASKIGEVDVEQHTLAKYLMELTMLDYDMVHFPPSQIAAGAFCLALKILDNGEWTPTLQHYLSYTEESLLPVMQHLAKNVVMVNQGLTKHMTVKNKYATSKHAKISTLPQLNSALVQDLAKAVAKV

C[C@H]1CCCC(F)(F)c2cc(ccn2)Nc2cc(n[nH]2)[C@H]2CC[C@H](C2)OC(=O)N1 [Compound 166, (1^1S,1^3R,9S,Z)-5,5-difluoro-9-methyl-2^1H-12-oxa-3,10-diaza-4(4,2)-pyridina-2(3,5)-pyrazola-1(1,3)-cyclopentanacyclododecaphan-11-one]
pIC50 (CDK1-CYCLIN B; ADP-Glo, 1000 μM ATP, Table 25): 7.30 to 8.00
pIC50 (CDK1-CYCLIN B; ADP-Glo, 1000 μM ATP, Table 31): 7.30 to 8.00
CDK2 Fold selectivity, CDK1 (CDK1-CYCLIN B; Table 26): E (E, <20)
CDK2 Fold selectivity, CDK1 (CDK1-CYCLIN B; Table 32): E (E, <20)
pIC50 (CDK2-CYCLIN E1; ADP-Glo, 1000 μM ATP, Table 25): ≥ 8.00
pIC50 (CDK2-CYCLIN E1; ADP-Glo, 1000 μM ATP, Table 31): ≥ 8.00
pIC50 (CDK4-CYCLIN D1; ADP-Glo, 1000 μM ATP, Table 25): 7.00 to 7.30
pIC50 (CDK4-CYCLIN D1; ADP-Glo, 1000 μM ATP, Table 31): 6.30 to 7.00
CDK2 Fold selectivity, CDK4 (CDK4-CYCLIN D1; Table 26): C (C, >50 and ≤100)
CDK2 Fold selectivity, CDK4 (CDK4-CYCLIN D1; Table 32): D (D, >20 and ≤50)
pIC50 (CDK6-CYCLIN D3; ADP-Glo, 1000 μM ATP, Table 25): 7.30 to 8.00
pIC50 (CDK6-CYCLIN D3; ADP-Glo, 1000 μM ATP, Table 31): 6.30 to 7.00
CDK2 Fold selectivity, CDK6 (CDK6-CYCLIN D3; Table 26): D (D, >20 and ≤50)
CDK2 Fold selectivity, CDK6 (CDK6-CYCLIN D3; Table 32): D (D, >20 and ≤50)
pIC50 (CDK9-CYCLIN T1; [3]): 7.30 to 8.00
pIC50 (CDK9-CYCLIN T1; ADP-Glo, 1000 μM ATP, Table 31, read-out: CDK9-CYCLINT1, IC50): 7.30 to 8.00
CDK2 Fold selectivity, CDK9 (CDK9-CYCLIN T1; Table 26): D (D, >20 and ≤50)
CDK2 Fold selectivity, CDK9 (CDK9-CYCLIN T1; Table 32): E (E, <20)
pIC50 [1]: 8.00 to 8.70
pIC50 [2]: 7.30 to 8.00
pIC50 (CCNE1-normal SKOV3 cells): 5.90 to 6.60

O=C1NC2CC(/C=C/c3cc(ccn3)Nc3cc(n[nH]3)[C@H]3CC[C@H](C3)O1)C2 [Compound 172, (1^1S,1^3R,2^4Z,7^1R,7^3S,5E)-2^1H-10-oxa-3,8-diaza-4(4,2)-pyridina-2(3,5)-pyrazola-1(1,3)-cyclopentana-7(1,3)-cyclobutanacyclodecaphan-5-en-9-one]
pIC50 (CDK1-CYCLIN B; ADP-Glo, 1000 μM ATP, Table 25): ≥ 8.00
CDK2 Fold selectivity, CDK1 (CDK1-CYCLIN B; Table 26): E (E, <20)
pIC50 (CDK2-CYCLIN E1; ADP-Glo, 1000 μM ATP, Table 25): ≥ 8.00
pIC50 (CDK4-CYCLIN D1; ADP-Glo, 1000 μM ATP, Table 25): ≥ 8.00
CDK2 Fold selectivity, CDK4 (CDK4-CYCLIN D1; Table 26): E (E, <20)
pIC50 (CDK6-CYCLIN D3; ADP-Glo, 1000 μM ATP, Table 25): 7.30 to 8.00
CDK2 Fold selectivity, CDK6 (CDK6-CYCLIN D3; Table 26): E (E, <20)
pIC50 (CDK9-CYCLIN T1; [3]): ≥ 8.00
CDK2 Fold selectivity, CDK9 (CDK9-CYCLIN T1; Table 26): E (E, <20)
pIC50 [1]: ≥ 8.70
pIC50 [2]: 8.00 to 8.70
pIC50 (CCNE1-normal SKOV3 cells): 7.30 to 8.00

[2H]C1([2H])CC[C@H](C)NC(=O)O[C@@H]2CC[C@@H](C2)c2cc([nH]n2)Nc2ccnc(c2)O1 [Compound 173, (1^1S,1^3R,9S,Z)-9-methyl-2^1H-5,12-dioxa-3,10-diaza-4(4,2)-pyridina-2(3,5)-pyrazola-1(1,3)-cyclopentanacyclododecaphan-11-one-6,6-d2]
pIC50 (CDK1-CYCLIN B; ADP-Glo, 1000 μM ATP, Table 27): 6.30 to 7.00
CDK2 Fold selectivity, CDK1 (CDK1-CYCLIN B; Table 28): E (E, <20)
pIC50 (CDK2-CYCLIN E1; ADP-Glo, 1000 μM ATP, Table 27): 7.30 to 8.00
pIC50 (CDK4-CYCLIN D1; ADP-Glo, 1000 μM ATP, Table 27): 6.30 to 7.00
CDK2 Fold selectivity, CDK4 (CDK4-CYCLIN D1; Table 28): D (D, >20 and ≤50)
pIC50 (CDK6-CYCLIN D3; ADP-Glo, 1000 μM ATP, Table 27): < 6.30
CDK2 Fold selectivity, CDK6 (CDK6-CYCLIN D3; Table 28): D (D, >20 and ≤50)
pIC50 (CDK9-CYCLIN T1; ADP-Glo, 1000 μM ATP, Table 27, read-out: CDK9-CYCLINT1 IC50): < 6.30
CDK2 Fold selectivity, CDK9 (CDK9-CYCLIN T1; Table 28): D (D, >20 and ≤50)
pIC50 [1]: 7.30 to 8.00
pIC50 [2]: 6.60 to 7.30
pIC50 (CCNE1-normal SKOV3 cells): < 5.90

C[C@@H]1NC(=O)O[C@@H]2CC[C@@H](C2)c2cc([nH]n2)Nc2ccnc(c2)OCCC1(F)F [Compound 181, (1^1S,1^3R,9S,Z)-8,8-difluoro-9-methyl-2^1H-5,12-dioxa-3,10-diaza-4(4,2)-pyridina-2(3,5)-pyrazola-1(1,3)-cyclopentanacyclododecaphan-11-one]
pIC50 (CDK1-CYCLIN B; ADP-Glo, 1000 μM ATP, Table 29): 6.30 to 7.00
CDK2 Fold selectivity, CDK1 (CDK1-CYCLIN B; Table 30): D (D, >20 and ≤50)
pIC50 (CDK2-CYCLIN E1; ADP-Glo, 1000 μM ATP, Table 29): ≥ 8.00
pIC50 (CDK4-CYCLIN D1; ADP-Glo, 1000 μM ATP, Table 29): < 6.30
CDK2 Fold selectivity, CDK4 (CDK4-CYCLIN D1; Table 30): C (C, >50 and ≤100)
pIC50 (CDK6-CYCLIN D3; ADP-Glo, 1000 μM ATP, Table 29): < 6.30
CDK2 Fold selectivity, CDK6 (CDK6-CYCLIN D3; Table 30): C (C, >50 and ≤100)
pIC50 (CDK9-CYCLIN T1; ADP-Glo, 1000 μM ATP, Table 29, read-out: CDK9-CYCLINT1, IC50): 6.30 to 7.00
CDK2 Fold selectivity, CDK9 (CDK9-CYCLIN T1; Table 30): D (D, >20 and ≤50)
pIC50 [1]: 7.30 to 8.00
pIC50 [2]: 7.30 to 8.00
pIC50 (CCNE1-normal SKOV3 cells): 5.90 to 6.60

C[C@H]1CCCOc2cc(ccn2)Nc2[nH]nc(c2F)[C@H]2CC[C@H](C2)OC(=O)N1 [Compound 183, (1^1S,1^3R,9S,E)-2^4-fluoro-9-methyl-2^1H-5,12-dioxa-3,10-diaza-4(4,2)-pyridina-2(3,5)-pyrazola-1(1,3)-cyclopentanacyclododecaphan-11-one]
pIC50 (CDK1-CYCLIN B; ADP-Glo, 1000 μM ATP, Table 33): < 6.30
CDK2 Fold selectivity against CDK1 (CDK1-CYCLIN B; Table 34): D (D, >20 and ≤50)
pIC50 (CDK2-CYCLIN E1; ADP-Glo, 1000 μM ATP, Table 33): 7.30 to 8.00
pIC50 (CDK4-CYCLIN D1; ADP-Glo, 1000 μM ATP, Table 33): < 6.30
CDK2 Fold selectivity against CDK4 (CDK4-CYCLIN D1; Table 34): C (C, >50 and ≤100)
pIC50 (CDK6-CYCLIN D3; ADP-Glo, 1000 μM ATP, Table 33): < 6.30
CDK2 Fold selectivity against CDK6 (CDK6-CYCLIN D3; Table 34): C (C, >50 and ≤100)
pIC50 (CDK9-CYCLIN T1; ADP-Glo, 1000 μM ATP, Table 33, read-out: CDK9-CYCLINT1, IC50): < 6.30
CDK2 Fold selectivity against CDK9 (CDK9-CYCLIN T1; Table 34): B (B, >100 and ≤500)
pIC50 [1]: 7.30 to 8.00
pIC50 [2]: 6.60 to 7.30
pIC50 (CCNE1-normal SKOV3 cells): < 5.90

C[C@H]1CC(F)(F)COc2cc(ccn2)Nc2cc(n[nH]2)[C@H]2CC[C@H](C2)OC(=O)N1 [Compound 223, (1^1S,1^3R,9S,Z)-7,7-difluoro-9-methyl-2^1H-5,12-dioxa-3,10-diaza-4(4,2)-pyridina-2(3,5)-pyrazola-1(1,3)-cyclopentanacyclododecaphan-11-one]
pIC50 (CDK1-CYCLIN B; [4]): 7.00 to 7.30
CDK2 Fold selectivity against CDK1 (CDK1-CYCLIN B; Table 36): E (E, <20)
pIC50 (CDK2-CYCLIN E1; [4]): ≥ 8.00
pIC50 (CDK4-CYCLIN D1; [4]): 6.30 to 7.00
CDK2 Fold selectivity against CDK4 (CDK4-CYCLIN D1; Table 36): C (C, >50 and ≤100)
pIC50 (CDK6-CYCLIN D3; [4]): 6.30 to 7.00
CDK2 Fold selectivity against CDK6 (CDK6-CYCLIN D3; Table 36): C (C, >50 and ≤100)
pIC50 (CDK9-CYCLIN T1; Table 35, recombinant CDK kinase, read-out: CDK9-CYCLINT1, IC50): 6.30 to 7.00
CDK2 Fold selectivity against CDK9 (CDK9-CYCLIN T1; Table 36): C (C, >50 and ≤100)
pIC50 [1]: 8.00 to 8.70
pIC50 [2]: 7.30 to 8.00
pIC50 (CCNE1-normal SKOV3 cells): 5.90 to 6.60

From patent US20240317777A1, “NOVEL MACROCYCLIC AMINOPYRAZOLE COMPOUNDS AS CDK2 INHIBITORS” (Accutar Biotechnology Inc., priority 2023, published 2024)
